Measurements from patent US6589970B2, “6-(aryl-amido or aryl-amidomethyl)-naphthalen-2-yloxy-acidic derivatives as inhibitors of plasminogen activator inhibitor type-1 (PAI-1)” (Wyeth, priority 2001, dated 2003).

Assays:
human PAI-1 = human PAI-1 (Homo sapiens, UniProt P05121); test: Assay for Determining IC50 of Inhibition of PAI-1 (Antibody Assay); type: biochemical; settings: active PAI-1 bound to tPA-coated plate
Experimental: This assay is based upon the non-SDS dissociable interaction between tPA and active PAI-1. Assay plates are initially coated with human tPA (10 μg/ml). The test compounds are dissolved in DMSO at 10 mM, then diluted with physiologic buffer (pH 7.5) to a final concentration of 1-50 μM. The test compounds are incubated with human PAI-1 (50 ng/ml) for 15 minutes at room temperature. The tPA-coated plate is washed with a solution of 0.05% Tween 20 and 0.1% BSA, then the plate is blocked with a solution of 3% BSA. An aliquot of the test compound/PAI-1 solution is then added to the tPA-coated plate, incubated at room temperature for 1 hour, and washed. Active PAI-1 bound to the plate is assessed by adding an aliquot of a 1:1000 dilution of the 33B8 monoclonal antibody against human PAI-1, and incubating the plate at room temperature for 1 hour (Molecular Innovations, Royal Oak, Mich. The plate is again washed, and a solution of goat anti-mouse IgG-alkaline phosphatase conjugate is added at a 1:50,000 dilution in goat serum. The plate is incubated 30 minutes at room temperature, washed, and a solution of alkaline phosphatase substrate is added. The plate is incubated 45 minutes at room temperature, and color development is determined at OD405nm. The quantitation of active PAI-1 bound to tPA at varying concentrations of the test compound is used to determine the IC50. Results are analyzed using a logarithmic best-fit equation. The assay sensitivity is 5 ng/ml of human PAI-1 as determined from a standard curve ranging from 0-100 ng/ml.

[1] = molecular target: T1, recombinant human plasminogen activator inhibitor-1 (PAI-1) (Homo sapiens, UniProt P05121); test: Primary Screen for the PAI-1 Inhibition; type: biochemical; settings: for inhibition at 25 µM: 25 μM test compound, read-out: % Inhib. 25 μM; for inhibition at 100 µM: 100 μM test compound, read-out: % Inhib. 100 μM
T1 construct: purchased Molecular Innovations, Royal Oak, Mich
T1 sequence (P05121 24-402): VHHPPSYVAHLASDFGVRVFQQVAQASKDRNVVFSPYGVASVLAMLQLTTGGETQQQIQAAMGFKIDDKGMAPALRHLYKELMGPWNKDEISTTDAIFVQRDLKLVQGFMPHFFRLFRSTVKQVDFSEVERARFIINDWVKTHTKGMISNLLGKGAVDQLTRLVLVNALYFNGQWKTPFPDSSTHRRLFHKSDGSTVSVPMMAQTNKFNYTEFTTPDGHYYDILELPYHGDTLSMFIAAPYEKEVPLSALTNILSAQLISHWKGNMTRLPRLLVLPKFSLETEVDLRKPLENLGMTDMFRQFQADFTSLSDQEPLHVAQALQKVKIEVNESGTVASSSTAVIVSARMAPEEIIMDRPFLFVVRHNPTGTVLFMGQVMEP
Method in brief: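 Compound (1-100 μM final, ≤0.2% DMSO) was preincubated for 1 h at room temperature with 140 nM recombinant human PAI-1 at pH 6.6. tPA was then added at 70 nM for 30 min. Residual tPA activity was measured with Spectrozyme-tPA (A405 at 0 and 60 min) and taken as relative PAI-1 inhibition.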

[2] = molecular target: T1, recombinant human plasminogen activator inhibitor-1 (PAI-1); test: Modification of the Primary Screen for the PAI-1 Inhibition (IC50); type: biochemical
Experimental: Test compounds are dissolved in DMSO at a final concentration of 10 mM, then diluted 100× in physiologic buffer. The inhibitory assay is initiated by the addition of the test compound (1-100 μM final concentration, maximum DMSO concentration of 0.2%) in a pH 6.6 buffer containing 140 nM recombinant human plasminogen activator inhibitor-1 (PAI-1; Molecular Innovations, Royal Oak, Mich.). Following a 1 hour incubation at room temperature, 70 nM of recombinant human tissue plasminogen activator (tPA) is added, and the combination of the test compound, PAI-1 and tPA is incubated for an additional 30 minutes. Following the second incubation, Spectrozyme-tPA (American Diagnostica, Greenwich, Conn.), a chromogenic substrate for tPA, is added and absorbance read at 405 nm at 0 and 60 minutes. Relative PAI-1 inhibition is equal to the residual tPA activity in the presence of the test compound and PAI-1. Control treatments include the complete inhibition of tPA by PAI-1 at the molar ratio employed (2:1), and the absence of any effect of the test compound on tPA alone.

human PAI-1, sequence (P05121 24-402): as above

IC50 (human PAI-1) [µM] | inhibition at 25 µM [1] [%] | inhibition at 100 µM [1] [%] | IC50 [2] [µM] | melting point [°C] | SMILES
16.6 | 64 | 83 | 7.8 | – | CCCCc1oc2ccccc2c1C(=O)Nc1ccc2c(Br)c(OC(Cc3ccccc3)C(=O)O)ccc2c1 (centres unmarked) [Example 7, 2-{1-Bromo-6-[(2-butyl-benzofuran-3-carbonyl)-amino]-naphthalen-2-yloxy}-3-phenyl-propionic acid]
16.1 | – | 80 | 1.4 | 214 to 215 | CCCCc1oc2ccccc2c1C(=O)NCc1ccc2c(Br)c(OCc3nnn[nH]3)ccc2c1.[Na] [Example 17, 2-Butyl-benzofuran-3-carboxylic acid [5-bromo-6-(1H-tetrazol-5-ylmethoxy)-naphthalen-2-ylmethyl]-amide sodium salt]
16.8 | 25 | 72 | 9.94 | 192 to 196 | CCCCc1oc2ccccc2c1C(=O)NCc1ccc2c(-c3ccccc3)c(OCc3nnn[nH]3)ccc2c1 [Example 24, 2-Butyl-benzofuran-3-carboxylic acid [5-phenyl-6-(1H-tetrazol-5-ylmethoxy)-naphthalen-2-ylmethyl]-amide]
8.47 | 62 | 95 | 15.6 | 190 to 194 | CCCCc1oc2ccccc2c1C(=O)N(C)Cc1ccc2c(Br)c(OCc3nnn[nH]3)ccc2c1 [Example 31, 2-Butyl-benzofuran-3-carboxylic acid [5-bromo-6-(1H-tetrazol-5-ylmethoxy)-naphthalen-2-ylmethyl]-methyl-amide]
17.5 | 48 | 85 | 20.9 | – | CCCCc1oc2ccccc2c1C(=O)N(Cc1ccccc1)Cc1ccc2c(Br)c(OCc3nnn[nH]3)ccc2c1 [Example 48, 2-Butyl-benzofuran-3-carboxylic acid benzyl-[5-bromo-6-(1H-tetrazol-5-ylmethoxy)-naphthalen-2-ylmethyl]-amide]
18.7 | 69 | 91 | 6.9 | – | CCCCc1oc2ccccc2c1C(=O)N(CCCC)Cc1ccc2c(Br)c(OCc3nnn[nH]3)ccc2c1 [Example 51, 2-Butyl-benzofuran-3-carboxylic acid [5-bromo-6-(1H-tetrazol-5-ylmethoxy)-naphthalen-2-ylmethyl]-butyl-amide]
8.12 | 35 | 86 | 8.7 | 86 to 100 | O=C(NCc1ccc2c(Br)c(OC(Cc3ccccc3)C(=O)O)ccc2c1)c1ccc(Oc2cc(Cl)cc(Cl)c2)o1 (centres unmarked) [Example 53, 2-[1-Bromo-6-({[5-(3,5-dichloro-phenoxy)-furan-2-carbonyl]-amino}-methyl)-naphthalen-2-yloxy]-3-phenyl-propionic acid]
16.8 | 35 | 60 | 11.8 | – | O=C(NCc1ccc2c(Br)c(OC(Cc3ccccc3)C(=O)O)ccc2c1)c1ccc(C2CCCCC2)cc1 (centres unmarked) [Example 55]
